This note sets out measurements from patent publication US20250353825A1, “CANNABICYCLOL DERIVATIVES AND PREPARATION METHODS THEREOF” (priority 2023, published 2025).

One test relates to T98G. Briefly: MTS cell viability assay, T98G. The class given is cell-based. As to conditions: Homo sapiens, Table 7, 72 hours, read-out: IC50 against T98G. Here is the method: Primary viability screening: (1) the synthesized compounds 3a to 13d were respectively dissolved in DMSO to prepare a 40 μg/mL cannabicyclol and cannabicyclol derivative solutions.
(2) A control group: a 200 μL DMSO solvent.
(3) The solutions of compounds 3a to 13d were diluted in a twofold gradient to obtain cannabicyclol and cannabicyclol derivative solutions at concentrations of 40 μg/mL, 20 μg/mL, 10 μg/mL, 5 μg/mL, 2.5 μg/mL, 1.25 μg/mL, and 0.625 μg/mL, and 0.3125 μg/mL, respectively.
(4) Three glioblastoma stem cells (GSC-3, GSC-12, and GSC-18), three pancreatic cancer cell-derived stem cells (PANC-1-CSC, BXPC-3-CSC, and ASPC1-CSC), three liver cancer cell-derived stem cells (HepG2-CSC, MHCC97H-CSC, and SMMC7721-CSC), HEK-293T cells, 16 tumor cells (U251, U87, T98G, PANC1, BXPC3, ASPC1, HepG2, MHCC97H, SMMC7721, PC3, SKOV3, MDA-MB231, A549, HCT116, HEC-1B, MKN28), and differentiated glioblastoma stem cells (GSC-3diff and GSC-12diff) derived from GSC-3 and GSC-12 (all of the cells were provided by the Laboratory of Tumor Animal Model Preparation and Application Research, West China Hospital, Sichuan University) were inoculated into a 96-well plate at a concentration of 2×10^4 cells/well, and 100 μL of culture medium was then added to each well; […]
(10) The absorbance value at 490 nm was measured on an enzyme labeling apparatus, and the IC50 value was calculated.

The test system of another test is GSC-12. Briefly: Soft agar colony (clone) formation, GSC-12. The class given is cell-based. To be noted: crystal violet, FIG. 4, compound 3a 0, 5 and 5 [sic] μg/mL. As to the method: […] of low-melting-point agarose was dissolved in 12.5 mL of ddH2O to prepare a 3.2% low-melting-point agarose gel. The low-melting-point agarose gel was sterilized by autoclaving at 121° C. and 0.12 MPa for 20 minutes. After sterilization, the low-melting-point agarose gel was maintained at 60° C. in a drying oven for further use.
1.75 mL of 3.2% sterile low-melting-point agarose gel was taken, 5.25 mL of the corresponding complete medium was added, and the two were mixed thoroughly using a pipette to prepare a base gel at a concentration of 0.8%.
1 mL of the base gel was added to each well of a 6-well plate, ensuring that the base gel evenly covered the bottom of each well. The plate was placed at 4° C. for 5 minutes to allow the gel to solidify. After the gel had fully solidified, the plate was warmed at 37° C. for 5 minutes.
6 cells/cell lines (U251, SMMC7721, GSC-3, GSC-12, SMMC7721-CSC, and HepG2-CSC) were individually digested with 1× trypsin for 3 minutes. The corresponding complete culture medium (same as in the application example 1) was added to terminate the digestion. Cells were centrifuged at 1000 rpm for 3 minutes, and the cells were collected and counted. A total of 5×10^3 cells were added to each well, each group was set up with three replicates. […]

A further test deals with SMMC7721 liver cancer. Briefly: Mouse liver cancer model (subcutaneous SMMC7721). The class given is in vivo, mice. As to conditions: for tumor volume compared with the control group: 23 days, FIG. 5; for tumor weight compared with the control group: day 23, FIG. 7. Here is the method:
Establishment of a mouse liver cancer model: 2×10^6 SMMC7721 (containing 30% Matrigel) was subcutaneously injected into the right inguinal region of the mice (NOD/ShiLtJGpt-Prkdc^em26cd52 Il2rg^em26cd22/Gpt(NCG)mic). The model was established when the tumor volume reached 50 mm^3.
According to the weight of mice: in treatment group 1, each mouse was intraperitoneally injected with a CBL solution at 50 mg/kg, and in treatment group 2, each mouse was intraperitoneally injected with a CBL solution at 100 mg/kg. The mice in a control group were injected with an equal volume of a DMSO solvent. The drug was administered once every 2 days, continuing for 23 days. Tumor volume was measured on days 3, 7, 10, 14, 17, 20, and 23. On day 23, the tumor tissue was collected and weighed. The tumor volume changes at different time points are shown in FIG. 5, the tumor tissue collected on day 23 is shown in FIG. 6, and the average tumor weight of different treatment groups is shown in FIG. 7.

[1] abbreviates: treatment group 1, 50 mg/kg intraperitoneally once every 2 days.
The mark [2] stands for this setting: treatment group 2, 100 mg/kg intraperitoneally once every 2 days.

As to `CCCCCc1cc(O)c2c(c1)OC1(C)CCC3C1C2C3(C)C` (stereo not shown) [Compound 3a, cannabicyclol], the IC50 in the test on T98G was greater than 40 µg/mL. Further, the “colony formation of GSC-12” value in the test with GSC-12 was “significantly inhibited”. For the same compound, in the test with SMMC7721 liver cancer (100 mg/kg versus 50 mg/kg dosage, intraperitoneal), the “inhibitory effect on liver cancer, 100 mg/kg compared to 50 mg/kg” value is on record as “better inhibitory effect”. Also, in the test on SMMC7721 liver cancer (setting [1]), the “tumor volume compared with the control group” value is listed as “significantly inhibited” and the “tumor weight compared with the control group” value is on record as “significantly inhibited”. Besides, in the test with SMMC7721 liver cancer (setting [2]), the “tumor volume compared with the control group” value is reported as “significantly inhibited” and the “tumor weight compared with the control group” value is given as “significantly inhibited”.
